Activity calls are given as the source filed them.
How the values were obtained:
[1] = target: T1, DNA dC->dU-editing enzyme APOBEC-3A (Homo sapiens, UniProt P31941); test: A3A deaminase inhibition for selectivity – biochemical, dose response (AID 504722); format: functional
[2] = target: T2, DNA dC->dU-editing enzyme APOBEC-3G (Homo sapiens, UniProt Q9HC16); test: Dose Response confirmation of small molecule APOBEC3G DNA Deaminase Inhibitors via a fluorescence-based single-stranded DNA deaminase assay. [Related pubchem assays (depositor defined):AID493012, AID493028]; format: functional
T2 sequence (Q9HC16 whole entry): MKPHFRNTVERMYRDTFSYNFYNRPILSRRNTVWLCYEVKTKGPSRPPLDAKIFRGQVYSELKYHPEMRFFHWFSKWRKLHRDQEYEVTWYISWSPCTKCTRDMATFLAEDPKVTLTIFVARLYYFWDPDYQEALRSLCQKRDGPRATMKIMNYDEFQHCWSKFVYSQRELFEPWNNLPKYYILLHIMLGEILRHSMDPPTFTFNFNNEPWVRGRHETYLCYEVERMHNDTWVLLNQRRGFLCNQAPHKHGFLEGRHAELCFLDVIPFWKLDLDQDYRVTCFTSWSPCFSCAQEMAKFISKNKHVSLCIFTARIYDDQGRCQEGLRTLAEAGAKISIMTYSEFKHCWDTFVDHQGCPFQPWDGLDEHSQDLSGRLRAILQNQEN

Estrogen receptor = target: T3, Estrogen receptor (Homo sapiens, UniProt P03372);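 note: potency for inhibiting coactivator peptide recruitment to the receptor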
T3 sequence (P03372 whole entry): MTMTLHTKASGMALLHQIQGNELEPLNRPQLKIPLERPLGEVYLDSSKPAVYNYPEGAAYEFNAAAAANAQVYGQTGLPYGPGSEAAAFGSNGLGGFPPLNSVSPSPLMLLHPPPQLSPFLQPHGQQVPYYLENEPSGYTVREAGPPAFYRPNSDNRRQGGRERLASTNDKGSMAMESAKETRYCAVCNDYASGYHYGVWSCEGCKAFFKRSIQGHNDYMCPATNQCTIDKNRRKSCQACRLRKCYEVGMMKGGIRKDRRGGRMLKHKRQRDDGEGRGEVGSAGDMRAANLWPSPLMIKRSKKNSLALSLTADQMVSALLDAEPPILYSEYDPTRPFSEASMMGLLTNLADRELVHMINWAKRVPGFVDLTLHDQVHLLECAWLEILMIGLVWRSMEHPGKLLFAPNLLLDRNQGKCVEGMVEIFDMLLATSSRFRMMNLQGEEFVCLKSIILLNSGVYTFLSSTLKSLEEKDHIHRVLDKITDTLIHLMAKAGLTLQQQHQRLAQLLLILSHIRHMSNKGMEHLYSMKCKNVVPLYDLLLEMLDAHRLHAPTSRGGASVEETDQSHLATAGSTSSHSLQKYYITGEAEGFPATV

Leucine aminopeptidase = target: T4, Leucine aminopeptidase (Plasmodium falciparum 3D7, UniProt Q8IL11); test: P. falciparum M17LAP inhibitors, primary screen, biochemical, fluorogenic H-Leu-NHMec substrate, 1536-well (AID 1619); format: functional
T4 sequence (Q8IL11 whole entry): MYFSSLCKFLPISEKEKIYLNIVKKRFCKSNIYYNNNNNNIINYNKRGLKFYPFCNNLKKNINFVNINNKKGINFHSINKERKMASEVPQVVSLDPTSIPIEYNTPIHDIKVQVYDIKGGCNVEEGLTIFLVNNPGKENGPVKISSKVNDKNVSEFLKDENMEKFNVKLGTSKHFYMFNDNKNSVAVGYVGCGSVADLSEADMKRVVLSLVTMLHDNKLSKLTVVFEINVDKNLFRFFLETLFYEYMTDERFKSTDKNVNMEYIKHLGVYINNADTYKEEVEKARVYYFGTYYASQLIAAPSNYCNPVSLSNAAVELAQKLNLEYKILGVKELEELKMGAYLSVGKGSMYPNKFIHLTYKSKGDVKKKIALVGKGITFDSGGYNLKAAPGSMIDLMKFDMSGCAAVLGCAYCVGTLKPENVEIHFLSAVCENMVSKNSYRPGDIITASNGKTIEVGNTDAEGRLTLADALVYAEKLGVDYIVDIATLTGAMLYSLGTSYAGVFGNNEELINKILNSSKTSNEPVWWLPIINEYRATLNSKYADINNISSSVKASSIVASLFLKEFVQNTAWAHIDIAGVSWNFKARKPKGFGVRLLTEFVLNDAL

[3] = target: Voltage-dependent T-type calcium channel subunit alpha-1H (Homo sapiens, UniProt O95180); format: functional;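 note: channel activity triggered by adding a high calcium stimulation buffer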
Voltage-dependent T-type calcium channel subunit alpha-1H, sequence (O95180 whole entry): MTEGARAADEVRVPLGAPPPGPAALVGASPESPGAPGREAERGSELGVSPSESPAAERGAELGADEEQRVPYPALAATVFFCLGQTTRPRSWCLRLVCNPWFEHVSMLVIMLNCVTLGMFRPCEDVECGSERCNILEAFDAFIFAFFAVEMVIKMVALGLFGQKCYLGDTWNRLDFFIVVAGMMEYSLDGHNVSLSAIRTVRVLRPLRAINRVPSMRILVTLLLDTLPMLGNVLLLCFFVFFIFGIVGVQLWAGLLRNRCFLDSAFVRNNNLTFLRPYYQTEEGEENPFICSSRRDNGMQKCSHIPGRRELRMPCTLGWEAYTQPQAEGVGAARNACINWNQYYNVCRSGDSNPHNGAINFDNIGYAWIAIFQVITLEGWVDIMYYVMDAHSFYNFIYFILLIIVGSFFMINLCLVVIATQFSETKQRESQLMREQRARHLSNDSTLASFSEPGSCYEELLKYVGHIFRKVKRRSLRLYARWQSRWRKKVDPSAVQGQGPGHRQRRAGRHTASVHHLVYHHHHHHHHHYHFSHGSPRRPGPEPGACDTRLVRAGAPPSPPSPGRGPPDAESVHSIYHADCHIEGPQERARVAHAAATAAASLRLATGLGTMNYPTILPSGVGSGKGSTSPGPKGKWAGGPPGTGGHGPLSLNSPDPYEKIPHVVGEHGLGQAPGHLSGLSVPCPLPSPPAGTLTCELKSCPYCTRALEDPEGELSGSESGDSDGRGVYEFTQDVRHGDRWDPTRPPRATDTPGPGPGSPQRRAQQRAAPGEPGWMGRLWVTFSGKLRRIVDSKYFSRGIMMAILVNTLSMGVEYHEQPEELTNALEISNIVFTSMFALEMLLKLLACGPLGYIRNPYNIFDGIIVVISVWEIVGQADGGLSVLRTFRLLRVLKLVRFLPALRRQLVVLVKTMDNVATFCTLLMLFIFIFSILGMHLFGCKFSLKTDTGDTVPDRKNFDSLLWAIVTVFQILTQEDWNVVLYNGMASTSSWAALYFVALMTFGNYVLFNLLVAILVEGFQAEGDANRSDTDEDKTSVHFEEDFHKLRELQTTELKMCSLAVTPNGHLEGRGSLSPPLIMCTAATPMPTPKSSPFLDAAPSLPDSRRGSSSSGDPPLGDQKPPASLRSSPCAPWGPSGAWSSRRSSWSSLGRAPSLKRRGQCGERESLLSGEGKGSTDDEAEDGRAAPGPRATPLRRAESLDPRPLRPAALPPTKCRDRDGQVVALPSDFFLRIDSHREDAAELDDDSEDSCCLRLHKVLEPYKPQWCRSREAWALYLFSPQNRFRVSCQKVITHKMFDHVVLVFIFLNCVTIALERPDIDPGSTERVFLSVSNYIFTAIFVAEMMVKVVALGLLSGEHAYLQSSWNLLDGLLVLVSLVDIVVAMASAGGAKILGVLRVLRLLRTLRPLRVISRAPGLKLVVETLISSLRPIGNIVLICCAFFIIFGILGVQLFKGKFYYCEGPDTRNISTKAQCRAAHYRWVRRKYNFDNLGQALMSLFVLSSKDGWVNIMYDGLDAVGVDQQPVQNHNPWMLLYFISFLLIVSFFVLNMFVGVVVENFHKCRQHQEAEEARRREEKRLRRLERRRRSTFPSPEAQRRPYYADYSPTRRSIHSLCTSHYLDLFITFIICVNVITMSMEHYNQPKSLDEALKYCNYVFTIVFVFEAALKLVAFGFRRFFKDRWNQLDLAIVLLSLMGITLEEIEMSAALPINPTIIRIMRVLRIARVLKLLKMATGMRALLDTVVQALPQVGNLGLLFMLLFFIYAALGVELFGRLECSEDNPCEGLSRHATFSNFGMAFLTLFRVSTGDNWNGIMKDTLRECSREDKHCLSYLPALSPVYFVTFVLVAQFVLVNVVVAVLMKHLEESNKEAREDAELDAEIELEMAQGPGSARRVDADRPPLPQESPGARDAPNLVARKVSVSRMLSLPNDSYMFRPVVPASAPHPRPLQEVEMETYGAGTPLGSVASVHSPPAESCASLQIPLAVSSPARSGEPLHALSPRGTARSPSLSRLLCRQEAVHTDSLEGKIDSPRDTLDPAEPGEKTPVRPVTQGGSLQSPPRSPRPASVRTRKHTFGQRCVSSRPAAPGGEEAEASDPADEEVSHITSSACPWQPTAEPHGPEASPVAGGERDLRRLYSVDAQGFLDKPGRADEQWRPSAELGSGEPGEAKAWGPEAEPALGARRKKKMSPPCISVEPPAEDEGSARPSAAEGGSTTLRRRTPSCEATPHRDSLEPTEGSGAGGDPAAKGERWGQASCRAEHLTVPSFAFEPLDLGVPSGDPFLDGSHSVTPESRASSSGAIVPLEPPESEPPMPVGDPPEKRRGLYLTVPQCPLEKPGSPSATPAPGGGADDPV

[4] = target: T1, DNA dC->dU-editing enzyme APOBEC-3A; test: Dose Response confirmation of small molecule APOBEC3A DNA Deaminase Inhibitors via a fluorescence-based single-stranded DNA deaminase assay. [Related pubchem assays (depositor defined):AID493011, AID493024]; format: functional
[5] = target: T2, DNA dC->dU-editing enzyme APOBEC-3G; format: functional
Aminopeptidase N = target: T5, Aminopeptidase N (Plasmodium falciparum FcB1/Columbia, UniProt O96935); test: malaria alanyl aminopeptidase activity blockers – biochemical, fluorogenic H-Leu-NHMec substrate, 1536-well (AID 1445); set-up: species or system Plasmodium falciparum 3D7, 3D7
T5 sequence (O96935 whole entry): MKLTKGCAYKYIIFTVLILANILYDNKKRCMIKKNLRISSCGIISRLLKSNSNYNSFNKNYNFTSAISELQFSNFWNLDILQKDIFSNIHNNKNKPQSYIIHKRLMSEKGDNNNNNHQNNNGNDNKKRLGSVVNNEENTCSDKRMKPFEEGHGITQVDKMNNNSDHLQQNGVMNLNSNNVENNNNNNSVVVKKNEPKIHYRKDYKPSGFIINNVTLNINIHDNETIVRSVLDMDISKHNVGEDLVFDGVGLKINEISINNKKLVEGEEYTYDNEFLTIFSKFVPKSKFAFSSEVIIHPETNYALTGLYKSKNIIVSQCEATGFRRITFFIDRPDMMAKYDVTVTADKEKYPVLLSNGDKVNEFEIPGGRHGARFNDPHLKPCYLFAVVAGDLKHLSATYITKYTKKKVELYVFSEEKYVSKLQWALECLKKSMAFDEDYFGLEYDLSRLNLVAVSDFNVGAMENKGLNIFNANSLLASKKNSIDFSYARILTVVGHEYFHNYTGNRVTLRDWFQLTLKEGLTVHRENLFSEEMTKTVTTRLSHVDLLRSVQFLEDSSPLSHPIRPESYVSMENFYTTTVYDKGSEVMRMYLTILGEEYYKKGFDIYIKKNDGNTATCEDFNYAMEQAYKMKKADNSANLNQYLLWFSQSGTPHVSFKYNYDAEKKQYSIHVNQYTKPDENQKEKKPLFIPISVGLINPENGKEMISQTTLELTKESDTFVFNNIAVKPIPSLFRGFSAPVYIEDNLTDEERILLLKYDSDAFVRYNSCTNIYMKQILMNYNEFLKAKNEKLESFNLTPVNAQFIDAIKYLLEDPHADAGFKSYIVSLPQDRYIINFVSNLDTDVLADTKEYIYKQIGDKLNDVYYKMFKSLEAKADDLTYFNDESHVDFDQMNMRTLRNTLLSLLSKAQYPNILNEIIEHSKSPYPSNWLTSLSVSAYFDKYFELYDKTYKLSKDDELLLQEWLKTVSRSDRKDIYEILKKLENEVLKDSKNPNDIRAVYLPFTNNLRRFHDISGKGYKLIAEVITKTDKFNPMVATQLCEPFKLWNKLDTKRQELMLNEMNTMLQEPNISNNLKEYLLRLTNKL

[6] = HEK-293T viability loss after treatment – luminescence, T-cell screen hits, cytotoxicity control for TCR NF-kB inhibitor project, dose response (AID 489026); format: functional, cell-based;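 note: cells exposed to compound about 14 hours before the viability readout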
[7] = Luminescence Cell-Based Dose Confirmation HTS to Identify Activators of 5'UTR Stem-Loop Driven Alpha-Synuclein mRNA Translation in H4 Neuroglioblastoma Cells. [Related pubchem assays: 1829 (Project Summary), 1814 (Primary HTS)]; format: functional
[8] = Luminescence Cell-Based Dose Response HTS to Identify Activators of Luciferase Translation or Activity in H4 […] Cells. [Related pubchem assays: 1829 (Project Summary), 1814 (Primary HTS)]; format: functional
H4 = test: Luminescence Cell-Based Dose Response HTS to Identify Activators of 5'UTR Stem-Loop Driven Prion Protein mRNA Translation in H4 Neuroglioblastoma Cells. [Related pubchem assays: 1829 (Project Summary), 1814 (Primary HTS)]; format: functional; details: Homo sapiens
[9] = target: Glucose-6-phosphate 1-dehydrogenase (Homo sapiens, UniProt P11413); test: inhibition of Homo sapiens G6PD, dose series – biochemical, fluorescence, selectivity assay for P. falciparum G6PD inhibitor project, dose response (AID 504792); format: functional
Glucose-6-phosphate 1-dehydrogenase, sequence (P11413 whole entry): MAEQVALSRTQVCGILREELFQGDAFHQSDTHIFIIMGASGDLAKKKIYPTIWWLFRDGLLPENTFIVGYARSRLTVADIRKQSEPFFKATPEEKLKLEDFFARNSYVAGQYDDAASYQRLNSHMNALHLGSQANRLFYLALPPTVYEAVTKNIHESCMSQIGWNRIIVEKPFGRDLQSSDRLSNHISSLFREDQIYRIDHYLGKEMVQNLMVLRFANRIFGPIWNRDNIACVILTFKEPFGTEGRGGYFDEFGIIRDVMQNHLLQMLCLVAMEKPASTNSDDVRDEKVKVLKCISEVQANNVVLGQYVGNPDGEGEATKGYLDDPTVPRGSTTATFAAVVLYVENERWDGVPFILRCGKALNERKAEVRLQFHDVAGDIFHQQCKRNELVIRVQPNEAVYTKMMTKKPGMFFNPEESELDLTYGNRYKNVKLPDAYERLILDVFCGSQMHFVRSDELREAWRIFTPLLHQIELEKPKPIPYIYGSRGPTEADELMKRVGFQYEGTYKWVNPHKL

Nonstructural protein 1 = Nonstructural protein 1 (Influenza A virus, UniProt Q194T2); format: functional, Influenza A virus (A/California/07/2009(H1N1))
Nonstructural protein 1, sequence (Q194T2 whole entry): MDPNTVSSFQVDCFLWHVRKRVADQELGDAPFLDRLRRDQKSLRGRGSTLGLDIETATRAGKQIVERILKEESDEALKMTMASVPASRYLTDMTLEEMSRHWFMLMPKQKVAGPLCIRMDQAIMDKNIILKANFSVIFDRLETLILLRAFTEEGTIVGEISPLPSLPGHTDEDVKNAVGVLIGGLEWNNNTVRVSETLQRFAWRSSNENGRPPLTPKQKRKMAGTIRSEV

[10] = microbe, parasite or virus in culture; format: functional; details: Mycobacterium tuberculosis
[11] = viability of PTEN-deleted HCT116 cells – cell-based, HCT116 PTEN knockout, dose response (AID 1047); format: functional;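 note: HCT116 colon tumor cells with PTEN knocked out; cells exposed to compound for 60 hours before readout; potency for loss of cell viability measured by luminescence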
[12] = viability of HCT116 lacking mutant beta-catenin – cell-based, human colon tumor, dose response (AID 1045); format: functional;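 note: HCT116 colon tumor cells with beta catenin knocked out; cells exposed to compound for 60 hours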
Fatty acid synthase [13] = target: T6, Fatty acid synthase (Homo sapiens, UniProt P49327); test: inhibition of human FAS-TE enzyme activity – biochemical, endpoint fluorescence intensity, uHTS hits, dose response (AID 624327); format: functional;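 note: fluorescence from hydrolysis of an O-methyl fluorescein acyl ester substrate by the enzyme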
Fatty acid synthase [14] = target: T6, Fatty acid synthase; test: inhibition of human FAS-TE enzyme activity – biochemical, kinetic fluorescence intensity, dose response (AID 624326); format: functional;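 note: rate of fluorescence rise from hydrolysis of a fluorogenic O-methyl fluorescein ester substrate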
[15] = viability of uninfected HEp-2 cells – cell-based, HTS, cytotoxicity control for RSV inhibitor project, dose response (AID 2410); format: functional; details: human respiratory syncytial virus
Cytochrome P450 2D6 = Cytochrome P450 2D6 (Homo sapiens, UniProt P10635);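 note: CYP2D6 member of a cytochrome P450 panel assay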
Cytochrome P450 2D6, sequence (P10635 whole entry): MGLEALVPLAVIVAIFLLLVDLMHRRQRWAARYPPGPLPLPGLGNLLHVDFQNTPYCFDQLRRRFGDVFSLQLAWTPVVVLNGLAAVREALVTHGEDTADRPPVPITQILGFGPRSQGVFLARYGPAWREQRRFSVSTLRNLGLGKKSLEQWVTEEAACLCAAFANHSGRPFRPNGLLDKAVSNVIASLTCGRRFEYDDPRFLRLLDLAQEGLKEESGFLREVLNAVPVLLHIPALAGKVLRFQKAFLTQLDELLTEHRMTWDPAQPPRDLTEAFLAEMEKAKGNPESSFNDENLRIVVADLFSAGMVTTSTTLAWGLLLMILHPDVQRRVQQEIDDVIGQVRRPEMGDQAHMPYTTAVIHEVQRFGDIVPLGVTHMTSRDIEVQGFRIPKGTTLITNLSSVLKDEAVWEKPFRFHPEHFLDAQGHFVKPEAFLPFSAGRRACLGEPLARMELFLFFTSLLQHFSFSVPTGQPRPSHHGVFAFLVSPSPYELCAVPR

T1 sequence (P31941 whole entry): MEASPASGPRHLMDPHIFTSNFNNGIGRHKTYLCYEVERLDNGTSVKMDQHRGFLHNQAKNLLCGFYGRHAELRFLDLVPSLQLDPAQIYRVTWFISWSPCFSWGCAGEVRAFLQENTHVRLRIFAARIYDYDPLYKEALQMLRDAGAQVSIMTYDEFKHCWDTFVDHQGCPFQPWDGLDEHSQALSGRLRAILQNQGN

CCCCCC(O)CCc1nnc(S)n1-c1ccccc1 (centres undefined)
IC50 [1]: > 100 µM (inactive)
IC50 [2]: 6.33 µM (active)

COc1cc(NC(=O)COc2ccc(-n3cnnn3)cc2)c(OC)cc1Cl
IC50 (Estrogen receptor): 8.31 µM (active)

CCN1CCN(Cc2ccc(NC(=O)Nc3ccc(OC)cc3)cc2)CC1
IC50 (Leucine aminopeptidase): 25.1 µM (active)

O=C(O)CCCNC(=O)/C(=C\C=C\c1ccccc1)NC(=O)c1ccccc1Cl
IC50 (Leucine aminopeptidase): 86.8 µM (active)

FC(F)(F)c1nc(N2CCCC2)ncc1-c1nnnn1-c1ccc(Cl)cc1
EC50 [3]: 14.6 µM (active)

COc1ccc(-n2c(SCC(=O)Nc3ccc4c(c3)OCO4)nnc2C(C)N2CCCCC2)cc1 (centres undefined)
IC50 (Estrogen receptor): > 50 µM (not active)

CCc1n(CC(O)COC2CCCCC2)c2ccccc2[n+]1C (centres undefined)
IC50 [4]: 1.75 µM (active)
IC50 [5]: 1.42 µM (active)

O=C(NN1C(=O)c2ccccc2NC1c1ccccn1)c1ccccc1 (centres undefined)
IC50 (Aminopeptidase N): 81.1 µM (active)

COc1ccc(N2C(=O)CC(Sc3n[nH]c(-c4ccccc4)n3)C2=O)cc1 (centres undefined)
IC50 [1]: > 100 µM (inactive)
IC50 [2]: 14.9 µM (active)

COc1cccc(-c2cc(C(=O)Nc3cc(C)n(Cc4ccc(Cl)cc4)n3)no2)c1
IC50 [6]: > 80 µM (inactive)

O=C(O)c1cccc(S(=O)(=O)Nc2ccc(O)cc2Sc2nc3ccccc3s2)c1
IC50 (Leucine aminopeptidase): 9.02 µM (active)

Cc1ccccc1NC(=O)N1CCCC(c2nc(-c3ccc(C(C)C)cc3)no2)C1 (centres undefined)
EC50 [7]: 5.18 µM (active)
EC50 [8]: 0.157 µM (active)
EC50 (H4): 23.1 µM (active)
EC50 [3]: 8.11 µM (active)

[O-]/[N+](=C\c1ccncc1)c1ccccc1
IC50 [9]: > 80 µM (inactive)

CCN1C(=O)/C(=C/NNC(=O)c2ccncc2)C(=O)NC1=S
IC50 (Aminopeptidase N): 85.1 µM (active)
IC50 (Nonstructural protein 1): 13.3 µM (active)

Cc1cccc(NC(=O)CSc2nc3ccccc3o2)c1
EC50 [3]: 4.44 µM (active)

O=C(Nc1nnc(S(=O)(=O)N2CCCCC2)s1)c1cccc(Br)c1
IC50 [9]: > 80 µM (inactive)

CCNS(=O)(=O)c1ccc(CCC(=O)NCc2ccccc2)cc1
IC50 (Aminopeptidase N): 60.1 µM (active)

NC(Cc1ccc([N+](=O)[O-])cc1)=NOC(=O)c1ccc2ccccc2c1
IC50 (Estrogen receptor): > 50 µM (not active)
CC50 [10]: 33 µM (active)

O=S(=O)(c1cccc(-c2nnc(S)n2Cc2ccccc2)c1)N1CCOCC1
IC50 [1]: > 100 µM (inactive)
IC50 [2]: 4.28 µM (active)

O=C(CSc1ccccn1)Nc1cccc2ccccc12
IC50 [4]: 8.82 µM (active)
IC50 [5]: 6 µM (active)

COc1ccc(C2NC(=O)c3sc(=S)n(-c4ccccc4)c3N2)cc1 (centres undefined)
EC50 [11]: 21.6 µM (active)
EC50 [12]: 22.6 µM (active)
EC50 [3]: 1.23 µM (active)

COc1cc(CNc2nc[nH]n2)cc(Br)c1OC
IC50 (Leucine aminopeptidase): 8.2 µM (active)

CC(=O)Nc1ccc2nc(-c3ccccn3)[nH]c2c1
IC50 (Aminopeptidase N): 94 µM (active)

O=C(NNC(=S)NCCc1ccccc1)c1ccc(Br)s1
IC50 (Aminopeptidase N): 9.19 µM (active)

O=[N+]([O-])c1cc(S(=O)(=O)Nc2cccc(C(F)(F)F)c2)ccc1-n1nnc2ccccc21
EC50 [3]: 3.52 µM (active)
IC50 (Fatty acid synthase [13]): 7.12 µM (active)
IC50 (Fatty acid synthase [14]): 4.72 µM (active)

Cc1c(Cl)c([N+](=O)[O-])nn1Cc1ccc(C(=O)N/N=C\c2cccc(Br)c2)o1
CC50 [15]: 39.4 µM (active)
IC50 [9]: > 80 µM (inactive)
AC50 (Cytochrome P450 2D6): 25.1 µM (inconclusive)

O=[N+]([O-])c1ccccc1/C=N/n1c(S)nnc1-c1cccnc1
IC50 [1]: > 100 µM (inactive)
IC50 [2]: 3.08 µM (active)
